In patent publication US20150150879A2, “Compositions for Treatment of Cystic Fibrosis and Other Chronic Diseases” (Vertex Pharmaceuticals Incorporated, priority 2010, published 2015):

Molecular target: T1, ΔF508-CFTR (Homo sapiens, UniProt P13569, DEL508-508)
T1 construct: expressed in transfected cells
Assay: Membrane potential optical (FRET/VIPR) assay, identification of potentiator compounds, NIH3T3 cells stably expressing ΔF508-CFTR
Type: cell-based
Conditions: Table II.A-4, assay not given; for EC50: modulators of ATP binding cassette transporters
Text: I) Membrane Potential Optical Methods for Assaying ΔF508-CFTR Modulation Properties of Compounds
The optical membrane potential assay utilized voltage-sensitive FRET sensors described by Gonzalez and Tsien (See, Gonzalez, J. E. and R. Y. Tsien (1995) “Voltage sensing by fluorescence resonance energy transfer in single cells” Biophys J 69(4): 1272-80, and Gonzalez, J. E. and R. Y. Tsien (1997) “Improved indicators of cell membrane potential that use fluorescence resonance energy transfer” Chem Biol 4(4): 269-77) in combination with instrumentation for measuring fluorescence changes such as the Voltage/Ion Probe Reader (VIPR) (See, Gonzalez, J. E., K. Oades, et al. (1999) “Cell-based assays and instrumentation for screening ion-channel targets” Drug Discov Today 4(9): 431-439).
These voltage sensitive assays are based on the change in fluorescence resonant energy transfer (FRET) between the membrane-soluble, voltage-sensitive dye, DiSBAC2(3), and a fluorescent phospholipid, CC2-DMPE, which is attached to the outer leaflet of the plasma membrane and acts as a FRET donor. Changes in membrane potential (Vm) cause the negatively charged DiSBAC2(3) to redistribute across the plasma membrane and the amount of energy transfer from CC2-DMPE changes accordingly. The changes in fluorescence emission were monitored using VIPR™ II, which is an integrated liquid handler and fluorescent detector designed to conduct cell-based screens in 96- or 384-well microtiter plates.
Identification of Potentiator Compounds
To identify potentiators of ΔF508-CFTR, a double-addition HTS assay format was developed. During the first addition, a Cl^−-free medium with or without test compound was added to each well. After 22 sec, a second addition of Cl^−-free medium containing 2-10 μM forskolin was added to activate ΔF508-CFTR. The extracellular Cl^− concentration following both additions was 28 mM, which promoted Cl^− efflux in response to ΔF508-CFTR activation and the resulting membrane depolarization was optically monitored using the FRET-based voltage-sensor dyes. Solutions […]

T1 sequence (P13569 with tags, fused parts or gaps DEL508-508): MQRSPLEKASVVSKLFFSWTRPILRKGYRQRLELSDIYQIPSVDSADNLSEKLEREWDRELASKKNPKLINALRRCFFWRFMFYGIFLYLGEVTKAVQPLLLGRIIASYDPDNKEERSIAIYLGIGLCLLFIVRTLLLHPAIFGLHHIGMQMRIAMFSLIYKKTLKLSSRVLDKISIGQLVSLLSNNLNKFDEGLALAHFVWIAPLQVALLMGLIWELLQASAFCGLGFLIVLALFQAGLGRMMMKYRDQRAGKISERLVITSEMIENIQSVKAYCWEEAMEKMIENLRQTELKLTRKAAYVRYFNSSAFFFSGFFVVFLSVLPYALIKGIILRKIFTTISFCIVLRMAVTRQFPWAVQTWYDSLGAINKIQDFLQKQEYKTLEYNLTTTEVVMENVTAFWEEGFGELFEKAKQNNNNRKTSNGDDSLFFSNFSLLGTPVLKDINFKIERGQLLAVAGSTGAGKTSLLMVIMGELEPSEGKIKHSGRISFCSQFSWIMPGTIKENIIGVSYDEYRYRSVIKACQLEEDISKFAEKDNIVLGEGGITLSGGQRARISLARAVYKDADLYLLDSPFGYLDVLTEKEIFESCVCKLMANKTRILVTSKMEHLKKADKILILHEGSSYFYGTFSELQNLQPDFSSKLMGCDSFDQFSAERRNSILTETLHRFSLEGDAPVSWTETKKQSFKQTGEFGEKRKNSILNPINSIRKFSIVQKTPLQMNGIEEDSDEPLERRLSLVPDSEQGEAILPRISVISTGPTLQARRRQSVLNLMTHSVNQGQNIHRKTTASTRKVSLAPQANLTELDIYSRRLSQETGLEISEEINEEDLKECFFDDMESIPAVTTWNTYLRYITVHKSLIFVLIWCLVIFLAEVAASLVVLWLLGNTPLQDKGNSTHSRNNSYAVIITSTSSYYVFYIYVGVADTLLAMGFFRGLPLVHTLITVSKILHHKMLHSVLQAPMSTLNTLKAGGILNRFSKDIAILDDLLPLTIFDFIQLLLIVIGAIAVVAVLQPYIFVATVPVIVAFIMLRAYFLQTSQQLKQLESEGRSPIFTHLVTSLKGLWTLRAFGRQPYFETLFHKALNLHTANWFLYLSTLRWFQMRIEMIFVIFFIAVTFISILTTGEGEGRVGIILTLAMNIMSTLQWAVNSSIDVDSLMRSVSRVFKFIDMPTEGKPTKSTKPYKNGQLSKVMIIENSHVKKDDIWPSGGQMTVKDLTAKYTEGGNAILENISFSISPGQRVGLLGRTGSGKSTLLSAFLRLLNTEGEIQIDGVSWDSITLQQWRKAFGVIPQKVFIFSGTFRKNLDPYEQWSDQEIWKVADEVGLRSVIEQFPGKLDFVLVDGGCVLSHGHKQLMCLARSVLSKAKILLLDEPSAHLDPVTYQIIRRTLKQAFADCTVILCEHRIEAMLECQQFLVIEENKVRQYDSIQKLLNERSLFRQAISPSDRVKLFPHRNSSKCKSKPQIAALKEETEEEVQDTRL

Compound | EC50 | % Activity (relative efficacy) (relative efficacy)
CC(C)(C)c1cc(C(C)(C)C)c(NC(=O)c2c[nH]c3cccc(O)c3c2=O)cc1O [Compound 464, 5-hydroxy-N-(5-hydroxy-2,4-ditert-butyl-phenyl)-4-oxo-1H-quinoline-3-carboxamide] | < 10 µM | ++ (“++” means between 25% to 100%)
Cc1cc2nc(NC(=O)c3c[nH]c4ccccc4c3=O)[nH]c2cc1C [compound 422, N-(5,6-dimethyl-3H-benzoimidazol-2-yl)-4-oxo-1H-quinoline-3-carboxamide] | < 10 µM | 
